The values that follow are results of earlier work, collected in patent US20130142871A1, “ORAL DOSAGE FORM OF DEFERASIROX” (Ratiopharm GmbH, priority 2010, published 2013).

The structures appear in SMILES notation.

For this data set the following is noted: see WO 2007/045445, page 2, third paragraph.

As to `O=C(O)c1ccc(-n2nc(-c3ccccc3O)nc2-c2ccccc2O)cc1` [Deferasirox, 4-[(3Z,5E)-3,5-bis(6-oxo-1-cyclohexa-2,4-dienylidene)-1,2,4-triazolidine-1-yl]benzoic acid], the solubility in water result is “poorly soluble in water”.
